Laboratory results: PMC5344255, “Design, Synthesis and Biochemical Evaluation of Novel Selective Estrogen Receptor Ligand Conjugates Incorporating an Endoxifen-Combretastatin Hybrid Scaffold” (Biomedicines, 2016)
Marks after values point to notes of the source that are not given here.

Key:
[1] = test system: MCF-7 human breast cancer cells; test: MTT assay for antiproliferative effects in MCF-7; assay type: cell-based; conditions: Homo sapiens, MCF7, MCF-7, MTT assay
Summary of the method: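 MCF-7 grown in MEM and MDA-MB-231 in D-MEM, each with 10% FBS, at 37 °C and 5% CO2. Viability by MTT reduction to formazan by metabolically active cells, plotted against compound concentration. Three experiments in triplicate, given as mean ± SEM.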

HCT-2998 = test: NCI 60 cell line screen; assay type: cell-based, human; conditions: HCT-2998 (Colon Cancer)
SW-620 = test: NCI 60 cell line screen; assay type: cell-based, human; conditions: SW-620 (Colon Cancer)
SK-MEL-5 = test: NCI 60 cell line screen; assay type: cell-based

In the case of `CCC(=C(c1ccc(O)cc1)c1ccc(OCCN(C)C(=O)/C(=C/c2ccc(OC)c(O)c2)c2cc(OC)c(OC)c(OC)c2)cc1)c1ccc(O)cc1` (mixture of isomers) [Compound 28, (E)-N-(2-{4-[(E/Z)-1,2-Bis-(4-hydroxyphenyl)but-1-enyl]-phenoxy}ethyl)-3-(3-hydroxy-4-methoxyphenyl)-N-methyl-2-(3,4,5-trimethoxyphenyl)acrylamide], the IC50 ([1]; mean of at least three experiments in triplicate) is reported as 5 nM, the IC50 ([1]; values in nM) is reported as 0.005 nM and the “GI% (10^−5 M)” value (HCT-2998; one-dose 10 µM) is reported as 100 ^d,j %. The GI50 (HCT-2998; Homo sapiens, 60 cell, five-dose screen) was 1250 nM, the GI50 (SW-620; Homo sapiens, five-dose screen) was 1210 nM and the “GI% (10^−5 M)” value (SW-620; one-dose 10 µM) was 81.32%. It also gave a CC50 (SK-MEL-5; Homo sapiens, five-dose screen, read-out: LC50 (the source's name)) of 34500 nM and a lethality (SK-MEL-5; one-dose screen 10 μM) of 60%.
